Test results reported in the NIST ThermoML archive (doi:10.1021/acs.jced.5b00242).

Key:
[1] = refractive index (Na D-line) (dimensionless); xn = mol fraction of the nth substance listed; conditions: 101 kPa, Liquid, Standard Abbe refractometry, x1 = 1
[2] = xn = mol fraction of the nth substance listed; conditions: 101 kPa, Liquid, x1 = 1; for viscosity: Stabinger Viscometer; for mass density: Vibrating tube method
[3] = Liquid; for viscosity: 101 kPa, Stabinger Viscometer; for mass density: 101.33 kPa, Vibrating tube method
[4] = refractive index (Na D-line) (dimensionless); conditions: 101 kPa, Liquid, Standard Abbe refractometry

CCn1cc[n+](C)c1.N#C[C-](C#N)C#N [1-ethyl-3-methyl-1H-imidazolium tricyanomethanide] + CCn1cc[n+](C)c1.C[C@H](N)C(=O)[O-]
Conditions | mass density, [2] [kg/m3] | refractive index, [1] | viscosity, [2] [mPa·s]
293.15 K | 1084.6 | 1.51454 | 16.62
298.15 K | 1081 | 1.51286 | 14.19
303.15 K | 1077.5 | 1.51114 | 12.18
308.15 K | 1073.9 | 1.50938 | 10.58
313.15 K | 1070.4 | 1.50765 | 9.02
318.15 K | 1067.1 | 1.50595 | 8.2
323.15 K | 1063.7 | 1.50419 | 7.31
328.15 K | 1060.3 | 1.50255 | 6.56
333.15 K | 1056.9 | 1.50087 | 5.72
338.15 K | 1053.6 | 1.49921 | 5.38
343.15 K | 1050.2 | 1.49757 | 4.91
348.15 K | 1046.8 | 1.49593 | 4.5
353.15 K | 1043.4 | 1.49429 | 3.98

CCn1cc[n+](C)c1.O=C([O-])[C@@H]1CCCN1 [1-ethyl-3-methyl-1H-imidazolium L-prolinate]
Conditions | mass density, [3] [kg/m3] | refractive index, [4] | viscosity, [3] [mPa·s]
293.15 K | 1145.9 | 1.52291 | 1928.4
298.15 K | 1142.8 | 1.52151 | 1194.6
303.15 K | 1139.6 | 1.52009 | 771.51
308.15 K | 1136.4 | 1.5187 | 517.61
313.15 K | 1133.2 | 1.51731 | 359.21
318.15 K | 1130.1 | 1.51591 | 256.92
323.15 K | 1127.1 | 1.51454 | 188.66
328.15 K | 1124 | 1.51315 | 141.76
333.15 K | 1121 | 1.51177 | 108.85
338.15 K | 1118 | 1.51035 | 85.12
343.15 K | 1115 | 1.50897 | 67.69
348.15 K | 1112 | 1.50757 | 54.73
353.15 K | 1109.1 | 1.5062 | 44.89

CCn1cc[n+](C)c1.N#C[C-](C#N)C#N [1-ethyl-3-methyl-1H-imidazolium tricyanomethanide] + CCn1cc[n+](C)c1.NCCS(=O)(=O)[O-]
Conditions | mass density, [2] [kg/m3] | refractive index, [1] | viscosity, [2] [mPa·s]
293.15 K | 1084.6 | 1.51454 | 16.62
298.15 K | 1081 | 1.51286 | 14.19
303.15 K | 1077.5 | 1.51114 | 12.18
308.15 K | 1073.9 | 1.50938 | 10.58
313.15 K | 1070.4 | 1.50765 | 9.02
318.15 K | 1067.1 | 1.50595 | 8.2
323.15 K | 1063.7 | 1.50419 | 7.31
328.15 K | 1060.3 | 1.50255 | 6.56
333.15 K | 1056.9 | 1.50087 | 5.72
338.15 K | 1053.6 | 1.49921 | 5.38
343.15 K | 1050.2 | 1.49757 | 4.91
348.15 K | 1046.8 | 1.49593 | 4.5
353.15 K | 1043.4 | 1.49429 | 3.98
